# Test: microbiological proof of ciprofloxacin bioactivity after manufacturing and during in vitro drug release tests
# Settings: microbiologically proved
structure (smiles),measurement,setting,value
"O=C(O)c1cn(C2CC2)c2cc(N3CCNCC3)c(F)cc2c1=O [Ciprofloxacin, ciprofloxacin]",bioactivity of ciprofloxacin after manufacturing and during the in vitro drug release tests,"Example 1, P(L/DL)LA composite",bioactive
same,bioactivity of ciprofloxacin after manufacturing and during the in vitro drug release tests,"Example 2, PLGA composite",bioactive
